Measurements taken from patent US20120029187A1, “HALOALKYLSULFONANILIDE DERIVATIVE” (Nissan Chemical Industries, Ltd., priority 2009, published 2012).

Columns and labels:
Assay type in all cases: in vivo
giant foxtail [1] = assay: Test Example 3: herbicidal effects in soil treatment
In short: (§1)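 Seeds were sown in sterilized diluvial soil and covered with about 1.5 cm of soil. Compounds, formulated as emulsifiable concentrates and diluted with water, were sprayed evenly over the soil surface at set doses in g/a. Herbicidal effect was scored on a rating scale three weeks later.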

large crabgrass [2] = assay: as above
In short: as §1

common chickweed [3] = assay: as above
In short: as §1

redroot pigweed [4] = assay: as above
In short: as §1

water foxtail [5] = assay: as above
In short: as §1

common ragweed [6] = assay: as above
In short: as §1

barnyardgrass [7] = assay: as above
In short: as §1

wild oat [8] = assay: as above
In short: as §1

beadstraw [9] = assay: as above
In short: as §1

velvetleaf [10] = assay: as above
In short: as §1

common lambsquater [11] = assay: as above
In short: as §1

Italian ryegrass [12] = assay: as above
In short: as §1

posumbu knotweed [13] = assay: as above
In short: as §1

transplanted rice = assay: Test Example 1: preemergence treatment under submerged conditions, effect on crop; settings: dose 2.52 g/a
In short: (§2)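 Alluvial soil was flooded to 4 cm, sown with barnyardgrass, bulrush and ducksalad, and planted with 2.5-leaf rice seedlings. On the seeding day, water-diluted emulsifiable concentrates were applied to the water surface at set doses (g/a). After three weeks in a 25 to 30° C. greenhouse, mortality was scored 0–5.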

ducksalad [14] = assay: Test Example 2: herbicidal effects during the vegetation period under submerged conditions; settings: treatment during the vegetation period under submerged conditions; dose 2.52 g/a
In short: (§3)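 Barnyardgrass, bulrush and ducksalad were co-sown in alluvial soil flooded to 4 cm and grown in a greenhouse at 25 to 30° C. At the 1- or 2-leaf stage, water-diluted emulsifiable concentrates went onto the water surface at set doses (g/a). Herbicidal effect was scored three weeks later on a graded scale.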

barnyardgrass [15] = assay: as above; settings: treatment during the vegetation period under submerged conditions; dose 2.52 g/a
In short: as §3

bulrush [16] = assay: as above; settings: treatment during the vegetation period under submerged conditions; dose 2.52 g/a
In short: as §3

ducksalad [17] = assay: Test Example 1: herbicidal effects in preemergence treatment under submerged conditions; settings: dose 2.52 g/a
In short: as §2

barnyardgrass [18] = assay: as above; settings: dose 2.52 g/a
In short: as §2

bulrush [19] = assay: as above; settings: dose 2.52 g/a
In short: as §2

giant foxtail [20] = assay: Test Example 4: herbicidal effect in foliage treatment
In short: (§4)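 Visual herbicidal scores on a graded scale were recorded three weeks after foliar application. Compounds went on as diluted emulsifiable concentrates at predetermined g/a to plants grown 14 days in a 25 to 30° C greenhouse.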

large crabgrass [21] = assay: as above
In short: as §4

common chickweed [22] = assay: as above
In short: as §4

redroot pigweed [23] = assay: as above
In short: as §4

water foxtail [24] = assay: as above
In short: as §4

common ragweed [25] = assay: as above
In short: as §4

barnyardgrass [26] = assay: as above
In short: as §4

wild oat [27] = assay: as above
In short: as §4

beadstraw [28] = assay: as above
In short: as §4

velvetleaf [29] = assay: as above
In short: as §4

common lambsquater [30] = assay: as above
In short: as §4

Italian ryegrass [31] = assay: as above
In short: as §4

posumbu knotweed [32] = assay: as above
In short: as §4

[33] = dose 3.2 g/a, three weeks after the application
[34] = dose 6.3 g/a, three weeks after application

O=C1CCSCN1Cc1ccccc1NS(=O)(=O)C(F)(F)F [II-78]
herbicidal effect, E: giant foxtail (giant foxtail [1]; dose 3.2 g/a): 5 (mortality of 90% or above (nearly complete death))
herbicidal effect, D: large crabgrass (large crabgrass [2]; dose 3.2 g/a): 5 (mortality of 90% or above (nearly complete death))
herbicidal effect, N: common chickweed (common chickweed [3]; dose 3.2 g/a): 5 (mortality of 90% or above (nearly complete death))
herbicidal effect, K: redroot pigweed (redroot pigweed [4]; dose 3.2 g/a): 3 (mortality of at least 40% and less than 70%)
herbicidal effect, G: water foxtail (water foxtail [5]; dose 3.2 g/a): 5 (mortality of 90% or above (nearly complete death))
herbicidal effect, J: common ragweed (common ragweed [6]; dose 3.2 g/a): 4 (mortality of at least 70% and less than 90%)
herbicidal effect, A: barnyardgrass (barnyardgrass [7]; dose 3.2 g/a): 5 (mortality of 90% or above (nearly complete death))
herbicidal effect, F: wild oat (wild oat [8]; dose 3.2 g/a): 0 (mortality of less than 5% (almost ineffective))
herbicidal effect, O: beadstraw (beadstraw [9]; dose 3.2 g/a): 0 (mortality of less than 5% (almost ineffective))
herbicidal effect, I: velvetleaf (velvetleaf [10]; dose 3.2 g/a): 5 (mortality of 90% or above (nearly complete death))
herbicidal effect, L: common lambsquater (common lambsquater [11]; dose 3.2 g/a): 4 (mortality of at least 70% and less than 90%)
herbicidal effect, H: Italian ryegrass (Italian ryegrass [12]; dose 3.2 g/a): 5 (mortality of 90% or above (nearly complete death))
herbicidal effect, M: posumbu knotweed (posumbu knotweed [13]; dose 3.2 g/a): 4 (mortality of at least 70% and less than 90%)
a: transplanted rice, effect on crop (evaluation scale 0-5) (transplanted rice): 0 (mortality of less than 5% (almost ineffective))
C: ducksalad, herbicidal effect (evaluation scale 0-5) (ducksalad [14]): 5 (mortality of 90% or above (nearly complete death))
A: barnyardgrass, herbicidal effect (evaluation scale 0-5) (barnyardgrass [15]): 5 (mortality of 90% or above (nearly complete death))
B: bulrush, herbicidal effect (evaluation scale 0-5) (bulrush [16]): 5 (mortality of 90% or above (nearly complete death))
C: ducksalad, herbicidal effect (evaluation scale 0-5) (ducksalad [17]): 5 (mortality of 90% or above (nearly complete death))
A: barnyardgrass, herbicidal effect (evaluation scale 0-5) (barnyardgrass [18]): 5 (mortality of 90% or above (nearly complete death))
B: bulrush, herbicidal effect (evaluation scale 0-5) (bulrush [19]): 5 (mortality of 90% or above (nearly complete death))
E: giant foxtail, herbicidal effect (giant foxtail [20]; [33]): 4 (mortality of at least 70% and less than 90%)
D: large crabgrass, herbicidal effect (large crabgrass [21]; [33]): 4 (mortality of at least 70% and less than 90%)
N: common chickweed, herbicidal effect (common chickweed [22]; [33]): 4 (mortality of at least 70% and less than 90%)
K: redroot pigweed, herbicidal effect (redroot pigweed [23]; [33]): 4 (mortality of at least 70% and less than 90%)
G: water foxtail, herbicidal effect (water foxtail [24]; [33]): 5 (mortality of 90% or above (nearly complete death))
J: common ragweed, herbicidal effect (common ragweed [25]; [33]): 4 (mortality of at least 70% and less than 90%)
A: barnyardgrass, herbicidal effect (barnyardgrass [26]; [33]): 4 (mortality of at least 70% and less than 90%)
F: wild oat, herbicidal effect (wild oat [27]; [33]): 0 (mortality of less than 5% (almost ineffective))
O: beadstraw, herbicidal effect (beadstraw [28]; [33]): 5 (mortality of 90% or above (nearly complete death))
I: velvetleaf, herbicidal effect (velvetleaf [29]; [33]): 5 (mortality of 90% or above (nearly complete death))
L: common lambsquater, herbicidal effect (common lambsquater [30]; [33]): 4 (mortality of at least 70% and less than 90%)
H: Italian ryegrass, herbicidal effect (Italian ryegrass [31]; [33]): 5 (mortality of 90% or above (nearly complete death))
M: posumbu knotweed, herbicidal effect (posumbu knotweed [32]; [33]): 4 (mortality of at least 70% and less than 90%)

CCOC(=O)N(c1ccccc1CN1CCSCC1=O)S(=O)(=O)C(F)(F)F [Compound I-18, 4-[2-(N-ethoxycarbonyl-N-trifluoromethanesulfonyl)aminobenzyl]-1,4-thiazinan-3-one]
E: giant foxtail, herbicidal effect (evaluation scale 0-5) (giant foxtail [1]; dose 6.3 g/a): 5 (mortality of 90% or above (nearly complete death))
D: large crabgrass, herbicidal effect (evaluation scale 0-5) (large crabgrass [2]; dose 6.3 g/a): 4 (mortality of at least 70% and less than 90%)
N: common chickweed, herbicidal effect (evaluation scale 0-5) (common chickweed [3]; dose 6.3 g/a): 4 (mortality of at least 70% and less than 90%)
K: redroot pigweed, herbicidal effect (evaluation scale 0-5) (redroot pigweed [4]; dose 6.3 g/a): 4 (mortality of at least 70% and less than 90%)
G: water foxtail, herbicidal effect (evaluation scale 0-5) (water foxtail [5]; dose 6.3 g/a): 5 (mortality of 90% or above (nearly complete death))
J: common ragweed, herbicidal effect (evaluation scale 0-5) (common ragweed [6]; dose 6.3 g/a): 4 (mortality of at least 70% and less than 90%)
A: barnyardgrass, herbicidal effect (evaluation scale 0-5) (barnyardgrass [7]; dose 6.3 g/a): 5 (mortality of 90% or above (nearly complete death))
F: wild oat, herbicidal effect (evaluation scale 0-5) (wild oat [8]; dose 6.3 g/a): 0 (mortality of less than 5% (almost ineffective))
O: beadstraw, herbicidal effect (evaluation scale 0-5) (beadstraw [9]; dose 6.3 g/a): 3 (mortality of at least 40% and less than 70%)
I: velvetleaf, herbicidal effect (evaluation scale 0-5) (velvetleaf [10]; dose 6.3 g/a): 1 (mortality of at least 5% and less than 20%)
L: common lambsquater, herbicidal effect (evaluation scale 0-5) (common lambsquater [11]; dose 6.3 g/a): 5 (mortality of 90% or above (nearly complete death))
H: Italian ryegrass, herbicidal effect (evaluation scale 0-5) (Italian ryegrass [12]; dose 6.3 g/a): 4 (mortality of at least 70% and less than 90%)
M: posumbu knotweed, herbicidal effect (evaluation scale 0-5) (posumbu knotweed [13]; dose 6.3 g/a): 3 (mortality of at least 40% and less than 70%)
a: transplanted rice, effect on crop (evaluation scale 0-5) (transplanted rice): 0 (mortality of less than 5% (almost ineffective))
C: ducksalad, herbicidal effect (evaluation scale 0-5) (ducksalad [14]): 4 (mortality of at least 70% and less than 90%)
B: bulrush, herbicidal effect (evaluation scale 0-5) (bulrush [16]): 5 (mortality of 90% or above (nearly complete death))
C: ducksalad, herbicidal effect (evaluation scale 0-5) (ducksalad [17]): 5 (mortality of 90% or above (nearly complete death))
A: barnyardgrass, herbicidal effect (evaluation scale 0-5) (barnyardgrass [18]): 5 (mortality of 90% or above (nearly complete death))
B: bulrush, herbicidal effect (evaluation scale 0-5) (bulrush [19]): 5 (mortality of 90% or above (nearly complete death))
E: giant foxtail, herbicidal effect (giant foxtail [20]; [34]): 4 (mortality of at least 70% and less than 90%)
D: large crabgrass, herbicidal effect (large crabgrass [21]; [34]): 4 (mortality of at least 70% and less than 90%)
N: common chickweed, herbicidal effect (common chickweed [22]; [34]): 4 (mortality of at least 70% and less than 90%)
K: redroot pigweed, herbicidal effect (redroot pigweed [23]; [34]): 4 (mortality of at least 70% and less than 90%)
G: water foxtail, herbicidal effect (water foxtail [24]; [34]): 5 (mortality of 90% or above (nearly complete death))
J: common ragweed, herbicidal effect (common ragweed [25]; [34]): 3 (mortality of at least 40% and less than 70%)
A: barnyardgrass, herbicidal effect (barnyardgrass [26]; [34]): 5 (mortality of 90% or above (nearly complete death))
F: wild oat, herbicidal effect (wild oat [27]; [34]): 3 (mortality of at least 40% and less than 70%)
O: beadstraw, herbicidal effect (beadstraw [28]; [34]): 4 (mortality of at least 70% and less than 90%)
I: velvetleaf, herbicidal effect (velvetleaf [29]; [34]): 4 (mortality of at least 70% and less than 90%)
L: common lambsquater, herbicidal effect (common lambsquater [30]; [34]): 4 (mortality of at least 70% and less than 90%)
H: Italian ryegrass, herbicidal effect (Italian ryegrass [31]; [34]): 4 (mortality of at least 70% and less than 90%)
M: posumbu knotweed, herbicidal effect (posumbu knotweed [32]; [34]): 3 (mortality of at least 40% and less than 70%)
